Our source for the Ki values is ChEMBL document CHEMBL1136754, “Mechanism of action of the diazabicyclononanone-type kappa-agonists” (J Med Chem, 2003).

What all share (type): tissue-based
Assay [1] addresses Delta-type opioid receptor (Rattus norvegicus, UniProt P33533). Briefly: Binding affinity towards Opioid receptor delta 1 using [3H]CI-DPDPE as radioligand in rat brain.
The target in the next assay is Mu-type opioid receptor (Rattus norvegicus, UniProt P33535). Briefly: Binding affinity towards Opioid receptor mu 1 using [3H]naloxone as radioligand in rat brain.
Mu-type opioid receptor, sequence (P33535 whole entry): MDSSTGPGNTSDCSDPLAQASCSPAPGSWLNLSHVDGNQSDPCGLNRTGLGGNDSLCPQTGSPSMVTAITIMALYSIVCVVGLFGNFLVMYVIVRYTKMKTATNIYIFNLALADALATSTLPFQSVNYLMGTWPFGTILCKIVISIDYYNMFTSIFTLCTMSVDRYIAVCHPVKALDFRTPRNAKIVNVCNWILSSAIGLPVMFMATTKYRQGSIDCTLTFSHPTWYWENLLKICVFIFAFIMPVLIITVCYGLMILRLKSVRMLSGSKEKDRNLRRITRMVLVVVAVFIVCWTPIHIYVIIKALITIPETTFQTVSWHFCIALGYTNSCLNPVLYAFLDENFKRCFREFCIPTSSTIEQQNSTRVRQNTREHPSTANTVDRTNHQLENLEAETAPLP
In assay [2] the target is Kappa-type opioid receptor (Rattus norvegicus, UniProt P34975). Briefly: Binding affinity towards KOR (Opioid receptor kappa 1) using [3H]CI977 as radioligand in rat brain.
Kappa-type opioid receptor, sequence (P34975 whole entry): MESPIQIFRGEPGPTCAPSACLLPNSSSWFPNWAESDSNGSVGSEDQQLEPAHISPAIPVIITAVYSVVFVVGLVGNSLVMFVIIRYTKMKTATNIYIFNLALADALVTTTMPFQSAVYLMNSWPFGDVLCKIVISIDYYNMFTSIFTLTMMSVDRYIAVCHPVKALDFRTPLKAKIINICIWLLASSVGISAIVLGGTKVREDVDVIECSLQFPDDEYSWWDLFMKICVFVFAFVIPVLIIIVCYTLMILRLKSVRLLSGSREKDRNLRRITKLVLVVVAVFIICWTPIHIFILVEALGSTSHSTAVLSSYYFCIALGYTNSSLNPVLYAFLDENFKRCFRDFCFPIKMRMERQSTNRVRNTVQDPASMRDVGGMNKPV

The term Ki denotes a dissociation constant, usually derived from enzyme kinetics or from competition with a known ligand. A higher Ki goes with lower affinity.

Each structure is given as a SMILES string.

Delta-type opioid receptor, sequence (P33533 whole entry): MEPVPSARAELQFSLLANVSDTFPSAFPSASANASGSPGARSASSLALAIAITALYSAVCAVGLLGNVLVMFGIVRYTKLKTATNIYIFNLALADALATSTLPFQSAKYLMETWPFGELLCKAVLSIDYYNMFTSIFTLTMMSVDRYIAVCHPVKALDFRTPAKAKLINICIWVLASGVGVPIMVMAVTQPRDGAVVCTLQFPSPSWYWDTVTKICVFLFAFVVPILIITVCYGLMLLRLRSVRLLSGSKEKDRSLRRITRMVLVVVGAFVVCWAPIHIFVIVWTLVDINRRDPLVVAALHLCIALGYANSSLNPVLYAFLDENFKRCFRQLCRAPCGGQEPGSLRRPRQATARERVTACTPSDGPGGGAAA

`CN1CC2C(=O)C(C1)C(c1ccccn1)N(C)C2c1ccccn1` (stereo not drawn): the Ki was over 10000 nM in assay [1], over 1000 nM on Mu-type opioid receptor and 15 nM in assay [2].
